Measured values reported in patent US8933117B2, “Crystals of substituted cycloalkene derivatives” (Daiichi Sankyo Company, Limited, priority 2010, dated 2015).
Entries after “also recorded” stand apart in the source; their conditions may differ. Read-outs that look alike come from different tables or passages of the source.

Assays:
[1] = Moisture absorption test (hygroscopicity); assay type: physicochemical; settings: 25° C.; for Hygroscopicity (in words): measurement humidity 10 to 95% RH; for Hygroscopicity, change in weight: relative humidity 10→80%
Procedure: A sample was weighed in a glass sample cup, and the weight thereof was measured under the following conditions.
Measuring device: DVS Advantage, manufactured by Surface Measurement System Ltd.
Measurement temperature: 25° C., Minimum exposure time: 15 min, Maximum exposure time: 120 min, Step transition condition: within 0.006 wt. %
The appearance of the sample at the time of completion of the measurement was confirmed.

Solution stability test = settings: light tester, versus light-shielded control
Procedure: (§1) The above flasks as such and the flasks covered with aluminum foil for light shielding as controls were placed in a light tester at 25° C. After one day, each solution was diluted to 10 mL with 50% MeCN. The concentration of each solution was calculated by performing HPLC under the same conditions as used in the above-described solubility test, and the change in concentration from the control was calculated.

Solubility test = assay type: physicochemical; settings: aqueous phosphate solution with 150 mM NaCl, pH around 7.5
Procedure: 150 mg of each of the compounds of Examples 1 and 2 and Comparative Example 1 was dissolved in 5 mL of an aqueous phosphate solution containing sodium chloride (containing 150 mM NaCl and 10 mM […]). After the resulting mixture was stirred for 30 minutes while measuring the pH of the mixture, a 0.5 mL portion of the resulting suspension was taken and filtered through a syringe filter. A 100 μL portion of the obtained filtrate was transferred into a 10-mL volumetric flask and diluted to 10 mL with an aqueous solution of 50% MeCN, whereby a sample solution was prepared. To the suspension, concentrated HCl was added dropwise to adjust the pH thereof to around 7.5.
Measurement was performed using HPLC under the following conditions.
HPLC system: Water's Alliance
Column: XTerra MS C18 3.5 μm, Column Size: 4.6×100 mm
Column Temp: 40° C., Flow Rate: 1.2 mL/min
Solvent A: 0.1% phosphoric acid in water, Solvent B: 0.1% phosphoric acid in MeCN

[2] = tested on: TNF-α production in human monocytic cell line U937 stimulated with endotoxin; assay: Suppressive effect on production of TNF-α in cells stimulated with endotoxin (in vitro); assay type: cell-based; settings: concentration of test compound: 100 nM, LPS 30 ng/ml, 4.5 hours
Procedure: The rate of suppression of TNF-α production when human monocytic cell line U937 was stimulated with endotoxin was determined for the compound of the present invention. Specifically, to RPMI-1640 medium containing 10% (volume %) of inactivated newborn bovine serum, 12-O-tetradecanoylphorbol-13-acetate was added to give a final concentration of 30 ng/ml. U937 cells were suspended in the medium and plated into a 96-well culture plate (Sumilon) so that the number of cells per well/volume was 2×10^4/0.1 mL, and the culture plate was then incubated for 3 days at 37° C. in a carbon dioxide incubator with 5% CO2 and 100% humidity. After completion of the incubation, the culture supernatant was removed. […] By using a 384-well half area black plate (Greiner) and an HTRF quantitative determination kit manufactured by Cisbio International, the concentration of TNF-α in the culture supernatant was measured as time-resolved fluorescence by Discovery (Packard). From the measured value in the absence of LPS (X), the measured value in the absence of the compound of the present invention (Y), and the measured value in the presence of the compound of the present invention (Z), the rate of suppression of TNF-α production was obtained according to the following calculation formula [I]. […]

blood TNF-α level = assay: Suppressive effect on elevation of blood TNF-α level (in vivo); parameters: species or system Sprague Dawley rats; settings: test compound 0.3 mg/kg, femoral vein, 0.5 hours before LPS; rat plasma 2 hours after LPS
Procedure: The suppressive effect of the compound of the present invention on the elevation of blood TNF-α level was studied. A test for the elevation of blood TNF-α level was performed in accordance with the method of Parant et al. described in Journal of Leukocyte Biology, Vol. 47, page 164 (1990).
In the test, 3 to 4 male Sprague Dawley rats (8 to 9 weeks of age) were used for each group.
At 4 hours before the administration of LPS, muramyl dipeptide dissolved in physiological saline (1 mg/mL) was administered to each rat through the tail vein at a dose of 1 mL/kg. At 0.5 hours before the administration of LPS, the rats were anaesthetized with pentobarbital (40 mg/kg), and the compound of the present invention dissolved in a 5% dimethyl acetamide/95% polyethylene glycol 400 solution was administered to each rat through the right femoral vein at a dose of 1 mL/kg. To the control group, a 5% dimethyl acetamide/95% polyethylene glycol 400 solution was administered at a dose of 1 mL/kg. […] The plasma TNF-α level was determined using a TNF-α quantitative determination kit (BioSource International, Inc.). From the blood TNF-α level in the control group (X) and the blood TNF-α level in the group administered with the compound of the present invention (Y), the rate of suppression of TNF-α production was calculated according to the following calculation formula [II]. […]

[3] = pH 7
Procedure: as §1

| SMILES | Hygroscopicity (in words) [1] | Hygroscopicity, change in weight [1] | Solution stability (25° C., 1 day) (Solution stability test; McIlvaine buffer pH 8) | Solubility (PBS pH 7.5) (Solubility test) | Rate of suppression of TNF-α production [2] | Solution stability (25° C., 1 day) (Solution stability test; PBS pH 6) | Rate of suppression of TNF-α production (blood TNF-α level) | Solution stability (25° C., 1 day) [3] |
| --- | --- | --- | --- | --- | --- | --- | --- | --- |
| CCOC(=O)C1=CC2(CC[C@H]1S(=O)(=O)Nc1ccc(F)cc1Cl)O[C@H](CO)[C@@H](CO)O2 (single isomer, unassigned) [Comparative Example, reference compound] | showed high hygroscopicity at every measurement humidity; also recorded: With hygroscopicity | 2.6% (relative | 99.4% | low solubility |  |  |  |  |
| CCOC(=O)C1=CC2(CC[C@H]1S(=O)(=O)[N-]c1ccc(F)cc1Cl)O[C@H](CO)[C@@H](CO)O2.[K+] [Example 1, Potassium(2-chloro-4-fluorophenyl){[(2R,3R,8R)-7-(ethoxycarbonyl)-2,3-bis(hydroxymethyl)-1,4-dioxaspiro[4.5]deca-6-en-8-yl]sulfonyl}azanide] | did not show hygroscopicity | <0.1% (relative |  | 13.8 mg/ml | 89% | 99.9% | 96% |  |
| CCOC(=O)C1=CC2(CC[C@H]1S(=O)(=O)[N-]c1ccc(F)cc1Br)O[C@H](CO)[C@@H](CO)O2.[K+] [Example 2, Potassium(2-bromo-4-fluorophenyl){[(2R,3R,8R)-7-(ethoxycarbonyl)-2,3-bis(hydroxymethyl)-1,4-dioxaspiro[4.5]deca-6-en-8-yl]sulfonyl}azanide] | did not show hygroscopicity | <0.1% (relative |  | 9.6 mg/ml |  |  | 81% | 99.4% |
